The text below walks through data of paper PMC12799524, “Putative new biomarkers for renal transporter-mediated drug-drug interactions: Characterization as substrates of organic cation transporter 2, multidrug and toxin extrusion protein 1, and other important drug transporters” (Drug Metabolism and Disposition, 2025).

The target of one series is T1, human OAT3 (Homo sapiens, UniProt Q8TCC7).
T1 sequence (Q8TCC7 1-542): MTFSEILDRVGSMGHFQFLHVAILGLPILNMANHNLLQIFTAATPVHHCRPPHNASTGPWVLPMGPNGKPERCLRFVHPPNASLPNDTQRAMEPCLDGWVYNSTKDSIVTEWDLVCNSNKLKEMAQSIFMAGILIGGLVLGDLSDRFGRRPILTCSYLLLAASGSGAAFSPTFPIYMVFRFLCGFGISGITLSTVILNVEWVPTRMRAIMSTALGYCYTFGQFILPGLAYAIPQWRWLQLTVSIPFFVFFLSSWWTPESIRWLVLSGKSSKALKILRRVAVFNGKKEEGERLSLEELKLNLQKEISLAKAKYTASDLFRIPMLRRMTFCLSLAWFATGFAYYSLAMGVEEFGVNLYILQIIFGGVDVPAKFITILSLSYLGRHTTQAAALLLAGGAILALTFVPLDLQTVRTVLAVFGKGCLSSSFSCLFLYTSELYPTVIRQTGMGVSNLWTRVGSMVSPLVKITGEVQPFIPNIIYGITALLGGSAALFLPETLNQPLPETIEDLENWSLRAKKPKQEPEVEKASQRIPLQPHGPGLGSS
Description: Uptake assay in HEK-OAT3 vs HEK-VC cells. The settings on record: for In Vitro OAT3 (substrate class): HEK cells.

For a further series, the target named is T2, MATE1 (Homo sapiens, UniProt Q96FL8).
T2 sequence (Q96FL8 1-570): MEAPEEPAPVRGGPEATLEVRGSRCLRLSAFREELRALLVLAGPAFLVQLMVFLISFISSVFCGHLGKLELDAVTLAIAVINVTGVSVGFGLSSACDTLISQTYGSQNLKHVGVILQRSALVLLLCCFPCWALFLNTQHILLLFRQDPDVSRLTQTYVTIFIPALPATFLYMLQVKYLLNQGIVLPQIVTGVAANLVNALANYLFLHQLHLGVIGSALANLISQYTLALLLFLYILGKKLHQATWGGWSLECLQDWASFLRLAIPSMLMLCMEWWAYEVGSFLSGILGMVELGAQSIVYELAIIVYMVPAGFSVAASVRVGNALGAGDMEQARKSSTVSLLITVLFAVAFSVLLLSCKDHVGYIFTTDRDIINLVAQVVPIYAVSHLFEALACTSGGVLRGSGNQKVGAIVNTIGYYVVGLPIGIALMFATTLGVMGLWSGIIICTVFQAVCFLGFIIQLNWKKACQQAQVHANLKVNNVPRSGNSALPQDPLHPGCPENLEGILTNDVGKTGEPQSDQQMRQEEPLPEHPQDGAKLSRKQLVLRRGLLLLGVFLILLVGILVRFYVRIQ
Kind of series: Intracellular accumulation and transcellular transport in MDCK-MATE1 monolayers. The settings on record: for Intracellular accumulation in MDCK-MATE1 cells compared to MDCK-VC cells / Transcellular basal to apical transport in MDCK-MATE1 cells vs MDCK-VC cells: 10 μM basal, 60 minutes. How it is done: (§1) The intracellular accumulation and transcellular, basal to apical transport experiments were performed as previously described in monolayers of polarized single-transfected (MDCK-OCT2, MDCK-MATE1) and double-transfected (MDCK-OCT2-MATE1) MDCK cells, MDCK control cells (MDCK-VC), or Caco-2 cells.[22] In brief, cell monolayers were grown in cell culture inserts on porous membranes. For MDCK-VC, MDCK-OCT2 and Caco-2, 5 × 10^5 cells were used per well; for MDCK-OCT2-MATE1, 6 × 10^5 cells were used, and for MDCK-MATE1, 8 × 10^5 cells were used per well. Cells were grown to confluence for 72 hours, induced with 10 mM sodium butyrate 48 hours after seeding for 24 hours (MDCK only), and subsequently used for transport experiments.
(§2) In general, after the cell culture medium was removed from both sides of the monolayers, cells were washed at 37 °C with transport buffer of the same composition as described in the previous section. Experiments were started by replacing the medium in the basal compartment with medium containing the putative biomarkers or [^3H]-labeled positive control substrates. The pH of the buffer on the basal side was 7.3 and 6.5 on the apical side for MDCK cells, whereas it was 7.3 on either side for Caco-2 cells. Cells were incubated at 37 °C and the buffer from the apical compartment was taken after 60 minutes for MDCK cells and after 240 minutes for Caco-2 cells. In case of Caco-2 cells, endogenous P-gp was inhibited by adding 2 μM of valspodar to the basal compartment. To measure the cellular accumulation of the test compounds, the remaining medium was removed at the end of the incubation period and the cell monolayers were rapidly rinsed 3 times with ice-cold 0.9% NaCl in water. Filters were detached from the chambers and placed into 500 μL of 80% MeOH containing the aforementioned recovery standards to lyse cells for subsequent LC-MS analysis or into 600 μL of 0.2% SDS (control experiments only). In the control experiments, the radioactivity of the collected apical medium and the solubilized cell monolayers and protein concentrations of the cell lysates were measured in the same way as described for the experiments with HEK cells.
(§3) The intracellular background of all 5 compounds in HEK cells at the beginning of the uptake experiments was investigated 48 hours after seeding without incubation with transport buffer (ie, 0 minutes). […] Then, cells were lysed with ice-cold 80% MeOH containing the aforementioned recovery standards. In addition, the impact of a 5-minute incubation period with transport buffer without added substance was investigated.

A further series addresses T3, human OCT2 (Homo sapiens, UniProt O15244).
T3 sequence (O15244 1-555): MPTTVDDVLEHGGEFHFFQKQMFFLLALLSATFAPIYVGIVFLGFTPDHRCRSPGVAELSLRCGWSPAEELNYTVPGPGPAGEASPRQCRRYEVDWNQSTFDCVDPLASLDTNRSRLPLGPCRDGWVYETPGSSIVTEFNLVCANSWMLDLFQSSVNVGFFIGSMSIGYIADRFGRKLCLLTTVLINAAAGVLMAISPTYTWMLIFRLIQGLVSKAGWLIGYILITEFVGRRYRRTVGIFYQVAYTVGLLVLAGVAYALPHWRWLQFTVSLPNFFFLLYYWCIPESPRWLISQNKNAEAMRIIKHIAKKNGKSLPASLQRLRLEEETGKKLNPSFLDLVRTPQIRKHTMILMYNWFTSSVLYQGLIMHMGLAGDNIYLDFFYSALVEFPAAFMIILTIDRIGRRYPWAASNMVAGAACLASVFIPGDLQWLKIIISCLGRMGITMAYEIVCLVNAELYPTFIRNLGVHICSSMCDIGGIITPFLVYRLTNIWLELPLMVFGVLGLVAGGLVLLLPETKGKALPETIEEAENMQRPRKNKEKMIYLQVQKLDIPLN
Description: Intracellular accumulation and transcellular transport in MDCK-OCT2 monolayers. It counts as in vitro ADME. Also noted: expressed in transfected cells. The settings on record: for Intracellular concentration in MDCK-OCT2 cells in comparison to MDCK-VC cells: 10 μM basal, 60 minutes. As for the experimental part: as §1, §2, §3

Where [1] appears, read: 60 minutes without added substance.

Description for human OAT3: Using both plasmids, stably transfected HEK cells overexpressing human OAT1 or OAT3 were established as described.[24] HEK cell clones with the highest expression of the SLC22A6 or the SLC22A8 mRNA were selected by quantitative reverse-transcription polymerase chain reaction and functionally characterized by standardized uptake assays using PAH (30 μM) or E3S (1 μM) as prototypic substrates for OAT1 (HEK-OAT1) or OAT3 (HEK-OAT3), respectively, as described below.
Uptake assays into HEK cells stably overexpressing transport proteins and their respective VC were performed as previously described with minor modifications.[19] In brief, cells were seeded in poly-D-lysine–coated (0.1 mg/mL) 12-well plates with a density of 7 × 10^5 cells per well. Twenty-four hours after seeding, cells were induced with 10 mM sodium butyrate to enhance protein expression. Transport experiments were performed 48 hours after seeding. Cells were washed once with transport buffer at 37 °C. Afterward, cells were incubated with transport buffer containing (putative) substrates at the desired concentration at 37 °C for 5 minutes. Inhibition of OCT2/MATE1-mediated transport was investigated by adding 50 μM of cimetidine to the above-mentioned transport buffer containing putative substrates. A mixture of unlabeled and [^3H]-labeled substrate was used for control experiments. The buffer for the transport experiments contained 142 mM NaCl, 5 mM KCl, 1 mM K2HPO4, 1.2 mM MgSO4, 1.5 mM CaCl2, 5 mM glucose, and 12.5 mM HEPES. The pH value was set to 7.3, except for HEK-MATE1 cells and their respective VC, in which pH was set to 8.0.
At the end of the incubation period, cells were put on ice, the transport buffer was removed, and cells were rinsed thrice with ice-cold 0.9% NaCl in water. Then, cells were lysed with 700 μL of an ice-cold mixture of MeOH and water (80:20) containing the recovery standards [^2H5]-tryptophan (1 μg/mL) and [^2H3]-N8-acetylspermidine (0.1 μg/mL). Subsequently, lysates were analyzed with liquid chromatography coupled to tandem mass spectrometry (LC-MS).
Data are presented in percentage of respective controls (which were set to 100%) or in pmol × mg protein^–1 × min^–1 for concentration-dependent transport as mean ± SEM. All results were normalized to the mean protein concentrations of the cell lysates in the respective control experiments.

Consider `NCCc1c[nH]c2ccc(O)cc12` [Serotonin, serotonin], for which the “Uptake ratio in HEK-OAT3 cells compared to HEK-VC cells” value at human OAT3 (100 μM substrate, 5 minutes) stood at 186%. The “In Vitro OAT3 (substrate class)” value at human OAT3 is listed as 0 (significant uptake in HEK cells, but less than 300% of respective control cells or significant reduction of transcellular transport in Caco-2 cells, but reduction not below 50% of respective control without valspodar). In addition, at MATE1, the “Intracellular accumulation in MDCK-MATE1 cells compared to MDCK-VC cells” value is given as “no significant difference” and the “Transcellular basal to apical transport in MDCK-MATE1 cells vs MDCK-VC cells” value is reported as “considerably increased”. For the same compound, the “Intracellular concentration in MDCK-OCT2 cells in comparison to MDCK-VC cells” value (“Intracellular concentration” for short) on human OCT2 was “significantly increased”.
`NCCc1ccc(O)cc1` [Tyramine, tyramine]: the “Uptake ratio in HEK-OAT3 cells compared to HEK-VC cells” value on human OAT3 (10 μM substrate, 5 minutes) was determined as 230%. Moreover, the “Uptake ratio for OAT3 (HEK-OAT3 vs HEK-VC)” value at human OAT3 (5 minutes) is “above 2 fold”. In addition, the “In Vitro OAT3 (substrate class)” value on human OAT3 was 0 (significant uptake in HEK cells, but less than 300% of respective control cells or significant reduction of transcellular transport in Caco-2 cells, but reduction not below 50% of respective control without valspodar). Besides, the “Intracellular accumulation in MDCK-MATE1 cells compared to MDCK-VC cells” value on MATE1 is “no significant difference”. Moreover, at human OCT2, the “Intracellular concentration” value is recorded as “significantly increased”.
Take `Cn1cnc(CCN)c1` [1-Methylhistamine, 1-methylhistamine]: the “In Vitro OAT3 (substrate class)” value at human OAT3 is “-”. Besides, the “Intracellular accumulation in MDCK-MATE1 cells compared to MDCK-VC cells” value on MATE1 was “no significant difference”.
Consider `C[N+](C)(C)CCCCC(=O)[O-]` [5-Amino valeric acid betaine, 5-amino valeric acid betaine], for which, at human OAT3, the “In Vitro OAT3 (substrate class)” value was “-”. Also, at MATE1, the “Intracellular accumulation in MDCK-MATE1 cells compared to MDCK-VC cells” value is “significant reduction” and the “Transcellular basal to apical transport in MDCK-MATE1 cells vs MDCK-VC cells” value is “not statistically significant”. Besides, at MATE1 (setting [1]), the “Intracellular background in MDCK-MATE1 cells” value is given as “no 5-amino valeric acid betaine could be detected”. At human OCT2, the “Intracellular concentration” value is given as “significantly increased”. Moreover, the “Intracellular background in MDCK-OCT2 cells vs MDCK-VC cells” value at human OCT2 (setting [1]) is reported as “much lower”.
